Assay: Acyl group migration (rearrangement) of pro-drug in DMSO-d6/buffer solution monitored by 19F-NMR
Format: physicochemical
Experimental: A compound of formula (I) OR (X) (5 mg) is dissolved in DMSO-d6 (500 μL) and either pH 4 buffer solution (500 μL, potassium hydrogen phthalate buffer) or pH 7 buffer solution (500 μL, sodium and potassium phosphate buffer) is added. The sample is then heated to 40° C. The O-acyl or N-acyl to N-terminal N-acyl migration is monitored by observing the change in chemical shift for the aromatic fluorines using ^19F-NMR. (Fluorine shifts associated with the desired migration were confirmed by spiking with authentic analogue). The sample is analyzed by ^19F-NMR at approxiamately 0, 1.5, 3, 24, 48, and 144 hours. The amount of O-acyl pro-drug, N-acyl pro-drug, and desired migration product at each time point are assigned by integrating the corresponding NMR signal.
N˜1˜-[(2R,3S)-3-amino-4-(3,5-difluorophenyl)-2-hydroxybutyl]-5-(1,3-oxazol-2-yl)-N˜3˜,N˜3˜-dipropyl-N˜1˜-[3-(trifluoromethyl)benzyl]isophthalamide hydrochloride (PREPARATION 7, 5 mg) is dissolved in DMSO-d6 (500 μL) and pH 4 buffer solution (500 μL, potassium hydrogen phthalate buffer) is added. The sample is then heated to 40° C. The N-acyl to N-terminal N-acyl migration is monitored by observing the change in chemical shift for the aromatic fluorines using ^19F-NMR. (Fluorine shifts for the desired migration product in the presence of buffer was confirmed by spiking with authentic migration product, N^1-((1S,2R)-1-(3,5-difluorobenzyl)-2-hydroxy-3-{[3-(trifluoromethyl)benzyl]amino}propyl)-5-(1,3-oxazol-2-yl)-N^3,N^3-dipropylisophthalamide.) NMR data is collected at 0, 1, 3, 25, 48, 96, and 144 hours. The amount of N-acyl pro-drug and desired migration product present at each time point is assigned by integrating the corresponding NMR signal.
The following examples illustrate the solution acyl group migration of compounds of the formulae (I) and (X) as observed by ^19F NMR spectroscopy. Data were collected as described in Example 1, above.

Row | Structure (SMILES) | HEA product (% present) (pH 4, 40° C., time 0 hr) | N-acyl prodrug (% present) (pH 4, 40° C., time 0 hr) | O-acyl pro-drug (% present) (pH 4, 40° C., time 0 hr) | HEA product (% present) (pH 4, 40° C., time 1.5 hr) | N-acyl prodrug (% present) (pH 4, 40° C., time 1.5 hr) | O-acyl pro-drug (% present) (pH 4, 40° C., time 1.5 hr) | HEA product (% present) (pH 4, 40° C., time 3 hr) | N-acyl prodrug (% present) (pH 4, 40° C., time 3 hr) | O-acyl pro-drug (% present) (pH 4, 40° C., time 3 hr) | HEA product (% present) (pH 4, 40° C., time 24 hr) | HEA product (% present) (pH 7, 40° C., time 0 hr) | N-acyl prodrug (% present) (pH 7, 40° C., time 0 hr) | O-acyl pro-drug (% present) (pH 7, 40° C., time 0 hr) | HEA product (% present) (pH 7, 40° C., time 1.5 hr) | N-acyl prodrug (% present) (pH 7, 40° C., time 1.5 hr) | O-acyl pro-drug (% present) (pH 7, 40° C., time 1.5 hr) | N-acyl prodrug (% present) (pH 7, 40° C., time 7 hr) | N-acyl prodrug (% present) (pH 7, 40° C., time 24 hr) | N-acyl prodrug (% present) (pH 7, 40° C., time 48 hr) | N-acyl prodrug (% present) (pH 7, 40° C., time 144 hr) | other results
1 | CCCN(CCC)C(=O)c1cc(C(=O)N(Cc2cccc(C(F)(F)F)c2)C[C@@H](O)[C@@H](N)Cc2cc(F)cc(F)c2)cc(-c2ncco2)c1.Cl [N˜1˜-[(2R,3S)-3-amino-4-(3,5-difluorophenyl)-2-hydroxybutyl]-5-(1,3-oxazol-2-yl)-N˜3˜,N˜3˜-dipropyl-N˜1˜-[3-(trifluoromethyl)benzyl]isophthalamide hydrochloride] | – | – | – | – | – | – | – | – | – | – | – | – | – | – | – | – | – | – | – | – | migration of N-acyl pro-drug to O-acyl pro-drug (pH 4 buffer/DMSO-d6, 40° C., 0 to 144 hours, 19F-NMR): No migration to O-acyl pro-drug was observed
2 | CCCN(CCC)C(=O)c1cc(C(=O)O[C@H](CNCc2cccc(CC)c2)[C@@H](N)Cc2cc(F)cc(F)c2)cc(-c2ncco2)c1.Cl.Cl [Preparation 16, (1R,2S)-2-amino-3-(3,5-difluorophenyl)-1-{[(3-ethylbenzyl)amino]methyl}propyl 3-[(dispropylamino)carbonyl]-5-(1,3-oxazol-2-yl)benzoate dihydrochloride] | 0% | 0% | 100% | 54% | 13% | 33% | 76% | 15% | 9% | 88% | 0% | 0% | 100% | 48% | 52% | 0% | 46% | 38% | 29% | 15% | N-acyl prodrug (% present) (pH 4, 40° C., time 24 hr): 12%; O-acyl pro-drug (% present) (pH 4, 40° C., time 24 hr): 0%; HEA product (% present) (pH 4, 40° C., time 48 hr): 88%; N-acyl prodrug (% present) (pH 4, 40° C., time 48 hr): 12%; O-acyl pro-drug (% present) (pH 4, 40° C., time 48 hr): 0%; HEA product (% present) (pH 4, 40° C., time 144 hr): 91%; N-acyl prodrug (% present) (pH 4, 40° C., time 144 hr): 9%; O-acyl pro-drug (% present) (pH 4, 40° C., time 144 hr): 0%; HEA product (% present) (pH 7, 40° C., time 7 hr): 54%; O-acyl pro-drug (% present) (pH 7, 40° C., time 7 hr): 0%; HEA product (% present) (pH 7, 40° C., time 24 hr): 62%; O-acyl pro-drug (% present) (pH 7, 40° C., time 24 hr): 0%; HEA product (% present) (pH 7, 40° C., time 48 hr): 71%; O-acyl pro-drug (% present) (pH 7, 40° C., time 48 hr): 0%; HEA product (% present) (pH 7, 40° C., time 144 hr): 85%; O-acyl pro-drug (% present) (pH 7, 40° C., time 144 hr): 0%
3 | CCCN(CCC)C(=O)c1cc(C(=O)O[C@H](CNC2(c3cccc(CC)c3)CC2)[C@@H](N)Cc2cc(F)cc(F)c2)cc(-c2ncco2)c1.Cl.Cl [Preparation 17, (1R,2S)-2-amino-3-(3,5-difluorophenyl)-1-({[1-(3-ethylphenyl)cyclopropyl]amino}methyl)propyl 3-[(dipropylamino)carbonyl]-5-(1,3-oxazol-2-yl)benzoate dihydrochloride] | 0% | 0% | 100% | 47% | 0% | 53% | 67% | 0% | 33% | 100% | 0% | 0% | 100% | 97% | 0% | 3% | 0% | 0% | 0% | 0% | HEA product (% present) (pH 4, 40° C., time 6 hr): 89%; N-acyl prodrug (% present) (pH 4, 40° C., time 6 hr): 0%; O-acyl pro-drug (% present) (pH 4, 40° C., time 6 hr): 11%; N-acyl prodrug (% present) (pH 4, 40° C., time 24 hr): 0%; O-acyl pro-drug (% present) (pH 4, 40° C., time 24 hr): 0%
4 | CCCN(CCC)C(=O)c1cc(C(=O)O[C@H](CNCc2cccc(C(F)(F)F)c2)[C@@H](N)Cc2cc(F)cc(F)c2)cc(-c2ncco2)c1.Cl.Cl [Preparation 18, (1R,2S)-2-amino-3-(3,5-uorophenyl)-1-({[3-(trifluoromethyl)benzyl]amino}methyl)propyl 3-[(dipropylamino)carbonyl]-5-(1,3-oxazol-2-yl)benzoate dihydrochloride] | 0% | 0% | 100% | 54% | 14% | 32% | 74% | 18% | 8% | – | 0% | 0% | 100% | 34% | 66% | 0% | 59% | 43% | 27% | 16% | HEA product (% present) (pH 4, 40° C., time 30 hr): 79%; N-acyl prodrug (% present) (pH 4, 40° C., time 30 hr): 21%; O-acyl pro-drug (% present) (pH 4, 40° C., time 30 hr): 0%; HEA product (% present) (pH 4, 40° C., time 54 hr): 80%; N-acyl prodrug (% present) (pH 4, 40° C., time 54 hr): 20%; O-acyl pro-drug (% present) (pH 4, 40° C., time 54 hr): 0%; HEA product (% present) (pH 4, 40° C., time 126 hr): 86%; N-acyl prodrug (% present) (pH 4, 40° C., time 126 hr): 14%; O-acyl pro-drug (% present) (pH 4, 40° C., time 126 hr): 0%; HEA product (% present) (pH 7, 40° C., time 7 hr): 41%; O-acyl pro-drug (% present) (pH 7, 40° C., time 7 hr): 0%; HEA product (% present) (pH 7, 40° C., time 24 hr): 57%; O-acyl pro-drug (% present) (pH 7, 40° C., time 24 hr): 0%; HEA product (% present) (pH 7, 40° C., time 48 hr): 73%; O-acyl pro-drug (% present) (pH 7, 40° C., time 48 hr): 0%; HEA product (% present) (pH 7, 40° C., time 144 hr): 84%; O-acyl pro-drug (% present) (pH 7, 40° C., time 144 hr): 0%

Reference: patent publication US7294642B2, “1,3-Diamino-2-hydroxypropane pro-drug derivatives” (Elan Pharmaceuticals, Inc., priority 2002, dated 2007)
